{
  "source": "ChEMBL document CHEMBL5500406",
  "about": "“Discovery of Novel Proteolysis-Targeting Chimera Molecules as Degraders of Programmed Cell Death-Ligand 1 for Breast Cancer Therapy” (J Med Chem, 2024)",
  "key": {"[1]": {"target": "T1, Protein cereblon/Programmed cell death 1 ligand 1 (Mus musculus) (UniProt Q9EP73+Q8C7D2)", "T1 sequence (Q8C7D2 whole entry partner)": "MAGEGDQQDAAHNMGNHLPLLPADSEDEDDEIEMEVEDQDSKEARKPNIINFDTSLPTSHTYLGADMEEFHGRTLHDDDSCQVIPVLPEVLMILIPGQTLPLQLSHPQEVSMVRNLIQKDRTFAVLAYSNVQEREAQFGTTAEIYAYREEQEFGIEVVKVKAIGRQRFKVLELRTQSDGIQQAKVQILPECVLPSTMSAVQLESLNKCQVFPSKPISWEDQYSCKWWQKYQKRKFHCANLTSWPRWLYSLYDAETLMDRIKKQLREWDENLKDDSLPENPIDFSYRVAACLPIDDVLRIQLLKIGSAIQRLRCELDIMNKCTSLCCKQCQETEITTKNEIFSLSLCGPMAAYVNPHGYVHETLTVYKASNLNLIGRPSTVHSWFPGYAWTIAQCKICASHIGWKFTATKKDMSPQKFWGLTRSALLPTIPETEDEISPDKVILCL", "T1 sequence (Q9EP73 19-290 limits assumed)": "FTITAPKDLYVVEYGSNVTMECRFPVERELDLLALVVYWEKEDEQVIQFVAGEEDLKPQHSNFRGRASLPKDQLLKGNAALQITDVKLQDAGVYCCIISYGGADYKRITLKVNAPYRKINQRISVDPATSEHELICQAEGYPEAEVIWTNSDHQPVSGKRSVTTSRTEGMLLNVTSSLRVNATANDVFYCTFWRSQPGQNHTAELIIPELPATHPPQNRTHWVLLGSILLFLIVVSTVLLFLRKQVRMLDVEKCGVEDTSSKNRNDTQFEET", "experiment": "PROTAC activity at CRBN/PD-L1 in mouse 4T1 cells assessed as protein degradation at 0.078 to 2.5 uM incubated for 24 hrs by Western blot analysis", "format": "cell-based", "details": "dose 0.078-2.5 µM"}, "[2]": {"target": "T1, Protein cereblon/Programmed cell death 1 ligand 1 (Mus musculus)", "experiment": "PROTAC activity at CRBN/PD-L1 in mouse 4T1 cells assessed as protein degradation at 0.312 uM incubated for 24 hrs by Western blot analysis relative to control", "format": "cell-based"}, "[3]": {"target": "Protein cereblon/Programmed cell death 1 ligand 1 (Homo sapiens) (UniProt Q9NZQ7+Q96SW2)", "sequence (Q96SW2 whole entry, looked up)": "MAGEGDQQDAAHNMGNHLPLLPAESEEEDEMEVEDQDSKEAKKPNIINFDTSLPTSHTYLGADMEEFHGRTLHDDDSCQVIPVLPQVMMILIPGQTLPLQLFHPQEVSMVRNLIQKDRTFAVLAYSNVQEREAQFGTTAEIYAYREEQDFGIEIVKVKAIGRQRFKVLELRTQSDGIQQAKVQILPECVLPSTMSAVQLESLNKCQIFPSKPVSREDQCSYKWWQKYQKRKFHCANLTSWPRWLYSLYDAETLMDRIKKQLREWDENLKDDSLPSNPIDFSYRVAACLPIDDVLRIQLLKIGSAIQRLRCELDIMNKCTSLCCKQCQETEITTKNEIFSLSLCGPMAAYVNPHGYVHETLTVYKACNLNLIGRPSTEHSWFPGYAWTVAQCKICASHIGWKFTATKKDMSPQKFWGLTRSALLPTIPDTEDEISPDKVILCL", "sequence (Q9NZQ7 whole entry, looked up)": "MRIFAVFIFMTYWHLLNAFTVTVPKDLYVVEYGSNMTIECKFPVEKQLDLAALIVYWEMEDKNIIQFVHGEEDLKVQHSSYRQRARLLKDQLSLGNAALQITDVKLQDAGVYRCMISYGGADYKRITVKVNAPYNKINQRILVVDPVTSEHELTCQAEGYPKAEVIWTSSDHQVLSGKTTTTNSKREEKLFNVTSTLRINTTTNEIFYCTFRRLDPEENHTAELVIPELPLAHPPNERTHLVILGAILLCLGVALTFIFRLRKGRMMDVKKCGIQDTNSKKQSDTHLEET", "experiment": "PROTAC activity at CRBN/PD-L1 in human NCI-H2228 cells assessed as protein degradation at >=5 uM measured for 24 hrs by Western blot analysis", "format": "cell-based"}, "[4]": {"target": "T1, Protein cereblon/Programmed cell death 1 ligand 1 (Mus musculus)", "experiment": "PROTAC activity at CRBN/PD-L1 in mouse 4T1 cells assessed as reduction in green fluorescence in cytoplasm at 0.312 uM incubated for 24 hrs by immunofluorescence analysis", "format": "subcellular"}, "[5]": {"target": "T1, Protein cereblon/Programmed cell death 1 ligand 1 (Mus musculus)", "experiment": "PROTAC activity at CRBN/PD-L1 in mouse 4T1 cells assessed as protein degradation at 0.078 to 0.312 uM incubated for 24 hrs by flow cytometry", "format": "cell-based", "details": "dose 0.078-0.312 µM"}, "4T1 [6]": {"system": "4T1", "experiment": "Antitumor activity against mouse 4T1 cells allografted in BALB/c mouse assessed as reduction in tumor volume at 60 mg/kg, ip qd for 15 days in presence of Paclitaxel", "format": "functional, organism-based", "details": "time 15.0 day"}, "4T1 [7]": {"system": "4T1", "experiment": "Antitumor activity against mouse 4T1 cells allografted in BALB/c mouse assessed as reduction in tumor weight at 60 mg/kg, ip qd for 15 days in presence of Paclitaxel", "format": "functional, organism-based", "details": "time 15.0 day"}, "4T1 [8]": {"system": "4T1", "experiment": "Antitumor activity against mouse 4T1 cells allografted in BALB/c mouse at 60 mg/kg, ip qd for 15 days relative to control", "format": "functional", "details": "4T1, 360 h, time 15 day, read-out: TGI"}, "4T1 [9]": {"system": "4T1", "experiment": "Antitumor activity against mouse 4T1 cells allografted in BALB/c mouse at 30 mg/kg, ip qd for 15 days relative to control", "format": "functional", "details": "4T1, 360 h, time 15 day, read-out: TGI"}, "4T1 [10]": {"system": "4T1", "experiment": "Antitumor activity against mouse 4T1 cells allografted in BALB/c mouse at 60 mg/kg, ip qd for 15 days in presence of Paclitaxel relative to control", "format": "functional", "details": "4T1, 360 h, time 15 day, read-out: TGI"}, "[11]": {"experiment": "Toxicity in BALB/c mouse allografted with mouse 4T1 cells assessed as pathological change in heart at 30 to 60 mg/kg, ip qd for 15 days by H and E staining based analysis", "format": "organism-based", "details": "in vivo, 360 h, dose 30-60 mg/kg, time 15 day"}, "[12]": {"experiment": "Toxicity in BALB/c mouse allografted with mouse 4T1 cells assessed as pathological change in heart at 60 mg/kg, ip qd for 15 days in presence of Paclitaxel by H and E staining based analysis", "format": "organism-based", "details": "in vivo, 360 h, time 15 day"}, "[13]": {"experiment": "Toxicity in BALB/c mouse allografted with mouse 4T1 cells assessed as pathological change in spleen at 60 mg/kg, ip qd for 15 days in presence of Paclitaxel by H and E staining based analysis", "format": "organism-based", "details": "in vivo, 360 h, time 15 day"}, "[14]": {"experiment": "Toxicity in BALB/c mouse allografted with mouse 4T1 cells assessed as pathological change in lung at 60 mg/kg, ip qd for 15 days in presence of Paclitaxel by H and E staining based analysis", "format": "organism-based", "details": "in vivo, 360 h, time 15 day"}, "[15]": {"experiment": "Toxicity in BALB/c mouse allografted with mouse 4T1 cells assessed as abnormality in routine blood analysis at 30 to 60 mg/kg, ip qd for 15 days", "format": "organism-based", "details": "in vivo, 360 h, dose 30-60 mg/kg, time 15 day"}, "[16]": {"experiment": "Toxicity in BALB/c mouse allografted with mouse 4T1 cells assessed as abnormality in routine blood analysis at 60 mg/kg, ip qd for 15 days in presence of Paclitaxel", "format": "organism-based", "details": "in vivo, 360 h, time 15 day"}, "[17]": {"experiment": "Toxicity in BALB/c mouse allografted with mouse 4T1 cells assessed as abnormality in biochemical analysis at 30 to 60 mg/kg, ip qd for 15 days", "format": "organism-based", "details": "in vivo, 360 h, dose 30-60 mg/kg, time 15 day"}, "4T1 [18]": {"system": "4T1", "experiment": "In vivo PROTAC activity at CRBN/PD-L1 in mouse 4T1 cells allografted in BALB/c mouse assessed as protein degradation at 30 to 60 mg/kg, ip qd for 15 days by IHC analysis", "format": "functional, organism-based", "details": "dose 30-60 mg/kg, time 15.0 day"}, "4T1 [19]": {"system": "4T1", "experiment": "Antitumor activity against mouse 4T1 cells allografted in BALB/c mouse assessed as increase in CD8+ T cells infiltration in tumor at 30 to 60 mg/kg, ip qd for 15 days by IHC analysis", "format": "functional, organism-based", "details": "dose 30-60 mg/kg, time 15.0 day"}, "4T1 [20]": {"system": "4T1", "experiment": "Antitumor activity against mouse 4T1 cells allografted in BALB/c mouse assessed as increase in GzmB mRNA level in tumor at 60 mg/kg, ip qd for 15 days by qRT-PCR analysis", "format": "functional, organism-based", "details": "time 15.0 day"}, "4T1 [21]": {"system": "4T1", "experiment": "Antitumor activity against mouse 4T1 cells allografted in BALB/c mouse assessed as increase in Prf1 mRNA level in tumor at 60 mg/kg, ip qd for 15 days by qRT-PCR analysis", "format": "functional, organism-based", "details": "time 15.0 day"}, "[22]": {"experiment": "Volume of distribution at steady state in Sprague-Dawley rat at 3 mg/kg, iv measured for 24 hrs by LC-MS/MS analysis", "format": "ADME, organism-based", "details": "in vivo, read-out: Vdss"}, "[23]": {"experiment": "Half life in Sprague-Dawley rat at 3 mg/kg, iv measured for 24 hrs by LC-MS/MS analysis", "format": "ADME, organism-based", "details": "in vivo"}, "[24]": {"experiment": "Tmax in Sprague-Dawley rat at 30 mg/kg, ip measured for 24 hrs by LC-MS/MS analysis", "format": "ADME, organism-based", "details": "in vivo"}, "[25]": {"experiment": "Cmax in Sprague-Dawley rat at 30 mg/kg, ip measured for 24 hrs by LC-MS/MS analysis", "format": "ADME, organism-based", "details": "in vivo"}, "[26]": {"experiment": "Half life in Sprague-Dawley rat at 30 mg/kg, ip measured for 24 hrs by LC-MS/MS analysis", "format": "ADME, organism-based", "details": "in vivo"}},
  "note": "Calls of active or inactive are those of the source. The calls are words filed in the database; no cut-off is given here.",
  "data": [
    {"smiles": "COc1nc(OCc2cccc(-c3ccccc3)c2C)ccc1CNCCNC(=O)CCCCCCCCNC(=O)COc1ccc(C2CCC(=O)NC2=O)cc1", "note": "(stereo unspecified)", "values": [
      {"measurement": "Activity", "setting": "[1]", "value": "Active"},
      {"measurement": "Emax", "setting": "[2]", "value": 85, "unit": "%"},
      {"measurement": "Activity", "setting": "[3]", "value": "Active"},
      {"measurement": "Activity", "setting": "[4]", "value": "Active"},
      {"measurement": "Activity", "setting": "[5]", "value": "Active"},
      {"measurement": "Activity", "setting": "4T1 [6]", "value": "Active"},
      {"measurement": "Activity", "setting": "4T1 [7]", "value": "Active"},
      {"measurement": "inhibition in vivo at 60 mg/kg", "setting": "4T1 [8]", "value": 83.2, "unit": "%"},
      {"measurement": "inhibition in vivo at 30 mg/kg", "setting": "4T1 [9]", "value": 75, "unit": "%"},
      {"measurement": "inhibition in vivo at 60 mg/kg", "setting": "4T1 [10]", "value": 86.7, "unit": "%"},
      {"measurement": "Activity", "setting": "[11]", "value": "Non-Toxic"},
      {"measurement": "Activity", "setting": "[12]", "value": "Non-Toxic"},
      {"measurement": "Activity", "setting": "[13]", "value": "Non-Toxic"},
      {"measurement": "Activity", "setting": "[14]", "value": "Non-Toxic"},
      {"measurement": "Activity", "setting": "[15]", "value": "Non-Toxic"},
      {"measurement": "Activity", "setting": "[16]", "value": "Non-Toxic"},
      {"measurement": "Activity", "setting": "[17]", "value": "Non-Toxic"},
      {"measurement": "Activity", "setting": "4T1 [18]", "value": "Active"},
      {"measurement": "Activity", "setting": "4T1 [19]", "value": "Active"},
      {"measurement": "Activity", "setting": "4T1 [20]", "value": "Active"},
      {"measurement": "Activity", "setting": "4T1 [21]", "value": "Active"},
      {"measurement": "Vd", "setting": "[22]", "value": 23, "unit": "L/kg"},
      {"measurement": "half-life", "setting": "[23]", "value": 0.952, "unit": "h"},
      {"measurement": "Tmax", "setting": "[24]", "value": 2, "unit": "h"},
      {"measurement": "Cmax", "setting": "[25]", "value": 217, "unit": "ng/mL"},
      {"measurement": "half-life", "setting": "[26]", "value": 5.3, "unit": "h"}
    ]}
  ]
}
